Values after ≈ are worked out from the molar mass of the structure shown.
Tested on: K562
Test: Cytotoxicity against human K-562 cells by MTT assay
Type: functional, cell-based

| SMILES | IC50 [µg/mL] |
| --- | --- |
| C=C1C(=O)[C@]23C[C@H]1C[C@H](O)[C@H]2[C@]1(C)C[C@H](OC(C)=O)[C@H](OC(C)=O)C(C)(C)[C@H]1[C@@H](OC(C)=O)C3 [LUNGSHENGENIN C] | 1.14 (≈ 2.39 µM) |
| C=C1C(=O)[C@]23C[C@H]1C[C@H](O)[C@H]2[C@@]1(C)[C@H]([C@@H](O)C3)C(C)(C)[C@@H](OC(C)=O)[C@@H](OC(C)=O)[C@@H]1O [LUNGSHENGENIN A] | 11.7 (≈ 26 µM) |
| C=C1C(=O)[C@@]23CC(=O)[C@@H]4C(C)(C)[C@@H](OC(C)=O)[C@@H](OC(C)=O)[C@H](O)[C@@]4(C)[C@@H]2[C@@H](O)C[C@@H]1C3 [LUNGSHENGENIN G] | 3.29 (≈ 7.34 µM) |
